SMILES | melting point [°C]
c1ccc(-c2nc(Nc3nccs3)c3ccccc3n2)cc1 [II-34, (2-Phenyl-quinazolin-4-yl)-(thiazol-2-yl)-amine] | 219 to 221
c1ccc(-c2nc(Nc3ncc(C4CC4)s3)c3ccccc3n2)cc1 [II-36, (5-Cyclopropyl-thiazol-2-yl)-(2-phenyl-quinazolin-4-yl)-amine] | 161 to 162
Cc1cnc(Nc2nc(-c3ccccc3)nc3ccccc23)s1 [II-35, (5-Methyl-thiazol-2-yl)-(2-phenyl-quinazolin-4-yl)-amine] | 215 to 216

— patent publication US6846928B2, “Compositions useful as inhibitors of protein kinases” (Vertex Pharmaceuticals Incorporated, priority 2002, dated 2005)
